One experiment concerns the target Transthyretin (Homo sapiens, UniProt P02766). The experiment is described as follows: Luminescence-based cell-based high throughput dose response assay to identify activators of Transthyretin (TTR) transcription. Type of experiment: functional.
For experiment [1], the target named is G-protein coupled receptor 183 (Homo sapiens, UniProt P32249). The experiment is described as follows: SAR confirmation of small molecule antagonists of the EBI2 receptor via a luminescent beta-arrestin assa. The format is functional.
Experiment [2] addresses T1, Low molecular weight phosphotyrosine protein phosphatase (Homo sapiens, UniProt P24666).
T1 sequence (P24666 whole entry): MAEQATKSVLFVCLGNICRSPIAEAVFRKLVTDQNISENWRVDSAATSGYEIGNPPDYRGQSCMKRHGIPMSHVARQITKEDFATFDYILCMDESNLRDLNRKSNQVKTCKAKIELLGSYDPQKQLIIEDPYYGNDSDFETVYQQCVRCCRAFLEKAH
The experiment is described as follows: LMPTP phosphatase inhibitors, dose response, biochemical, OMFP substrate, fluorescence intensity, set 2 (AID 743307). Type of experiment: functional.

The target in experiment [3] is T1, Low molecular weight phosphotyrosine protein phosphatase. The experiment is described as follows: LMPTP phosphatase inhibitors, colorimetric pNPP readout, dose response, orthogonal assay, biochemical, absorbance, pNPP substrate, LMPTP-A isoform, set 2 (AID 743308). Type of experiment: functional.
The nature of experiment [4]: half-maximal inhibitory concentration for glucagon-like peptide-1 release, STC-1 cell line, dose-response (AID 1117345). The format is functional, cell-based.
Experiment [5] is described as follows: Glucagon-like peptide 1 release potency, NCI-H716 cell line, dose-response, half-maximal inhibitory concentration (AID 1117344). The format is functional, cell-based.
Experiment [6] can be described thus: P. falciparum Dd2 growth inhibitors, dose response, SYBR Green, dry powder samples, set 9 (AID 1159568). Type of experiment: functional, cell-based.
Experiment [7] in a line: P. falciparum Dd2 blood-stage growth inhibition, dose response, SYBR Green fluorescence, erythrocytes, dry powder, set 2 (AID 1159574). Type of experiment: functional, cell-based.
Experiment [8] in a line: P. falciparum Dd2 growth inhibitors, dose response, SYBR Green, dry powder samples, set 4 (AID 1159572). The format is functional, cell-based.
The target of experiment [9] is RNA-editing ligase 1, mitochondrial (Trypanosoma brucei brucei, UniProt P86926). The experiment is described as follows: TbREL1 ligase inhibitors, dose response, biochemical, fluorescence, Trypanosoma brucei (AID 1117295). Type of experiment: functional.
A short description of experiment [10]: HEK293 cell viability, dose response, counter-screen for EBV LMP1 inhibitor project, dry powder, set 2 (AID 624374). Type of experiment: functional. For orientation: A counterscreen serves to expose hits that act by an unwanted route or on another target.
The next experiment deals with Paired box protein Pax-8 (Homo sapiens, UniProt Q06710). The experiment is described as follows: inhibitors of PAX8-driven TPO luciferase reporter, dose response, RMG-I cells, cherry-pick (AID 687027).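 Further: luciferase reporter driven by Pax8 target thyroperoxidase promoter measured by SteadyGlo luminescence.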 Type of experiment: functional, cell-based. For orientation: Reporter assays use an easily measured gene product as a stand-in for the process of interest.
Experiment [11] can be described thus: PAX2 cell-based inhibition, dose response, selectivity assay for PAX8 inhibitor project, plate reader, dry powder samples (AID 743048).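 Further: HEK293 cells carrying a WT1 promoter luciferase reporter driven by expressed Pax2; potency is for inhibition of Pax2 driven reporter signal.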 Type of experiment: functional.
Experiment [12] in a line: cytotoxicity in COV362 ovarian cancer cells, dose response, cytotoxicity control for PAX8 inhibitor project, cell-based, plate reader, dry powder, SA12 (AID 743144). Type of experiment: functional.
A short description of experiment [13]: NIH:OVCAR-3 ovarian cancer cell cytotoxicity, dose response, PAX8 inhibitor project, plate reader, dry powder samples (AID 743044). Type of experiment: functional, cell-based.
Experiment [14] can be described thus: PAX5 activity inhibitors, dose response, selectivity assay for PAX8 inhibitor project, cell-based, plate reader, dry powder samples (AID 743047).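 Further: HEK293 cells carrying a Pax5 driven CD19 promoter luciferase reporter; potency of inhibitors that lower reporter luminescence.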 Type of experiment: functional.
A short description of experiment [15]: cytotoxicity in COV434 cells, dose response, cytotoxicity control for PAX8 inhibitor project, cell-based, plate reader, dry powder, SA7 (AID 743145). The format is functional.
Experiment [16] is described as follows: cytotoxicity in OV-90 ovarian cancer cells, dose response, PAX8 inhibitor project, cell-based, plate reader, dry powder, SA8 (AID 743149). Type of experiment: functional.
Experiment [17] can be described thus: cytotoxicity dependent on PAX8, dose response, cell-based, plate reader, dry powder (AID 743049). Type of experiment: functional.
A short description of experiment [18]: inhibitors of firefly luciferase expression or activity, dose response, H4 neuroglioma cells, luminescence (AID 1990). Type of experiment: functional, cell-based.
The test system of experiment [19] is Streptococcus sp. 'group A'. The experiment is described as follows: growth inhibition of control SK(-) GAS strain, dose response, counter-screen for streptokinase expression inhibitor project, luminescence, kanamycin, BacTiterGlo, confirmation (AID 1900). The format is functional, organism-based.
The nature of experiment [20]: Luminescence Cell-Based Dose Response HTS to Identify Inhibitors of 5'UTR Stem-Loop Driven Prion Protein mRNA Translation in H4 Neuroglioblastoma Cells. [Related pubchem assays: 1827 (Project Summary), 1813 (Primary HTS)]. Type of experiment: functional.
Experiment [21] in a line: inhibitors of SNCA 5'UTR-driven reporter translation, confirmation, H4 neuroglioma cells, luminescence (AID 1988). Type of experiment: functional, cell-based.
The target of another experiment is T2, Streptokinase A (Streptococcus pyogenes serotype M1, UniProt P10520).
T2 sequence (P10520 whole entry): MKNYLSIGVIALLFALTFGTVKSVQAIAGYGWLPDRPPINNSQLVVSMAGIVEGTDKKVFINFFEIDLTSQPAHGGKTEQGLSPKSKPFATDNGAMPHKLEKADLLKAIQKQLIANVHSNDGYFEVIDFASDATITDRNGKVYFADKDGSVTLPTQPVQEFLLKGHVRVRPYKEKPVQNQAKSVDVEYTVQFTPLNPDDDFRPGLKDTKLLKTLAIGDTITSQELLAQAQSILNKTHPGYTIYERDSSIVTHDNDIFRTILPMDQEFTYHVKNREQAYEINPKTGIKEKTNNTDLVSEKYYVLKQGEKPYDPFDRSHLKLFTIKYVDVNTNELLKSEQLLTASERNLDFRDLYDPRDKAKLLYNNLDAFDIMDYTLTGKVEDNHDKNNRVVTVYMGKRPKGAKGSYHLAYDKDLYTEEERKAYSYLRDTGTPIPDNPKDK
The experiment is described as follows: S. pyogenes streptokinase expression inhibitors, potency, dose response, plasminogen activation absorbance, OD405 (AID 1914).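 Further: secreted streptokinase activity via plasminogen activation per viability signal from cell pellet.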 Type of experiment: functional, Streptococcus pyogenes M1 GAS.

A further experiment has as its target Ephrin type-A receptor 4 (Mus musculus, UniProt Q03137). The experiment is described as follows: inhibitors of EphA4 binding to KYL peptide, primary screen, biochemical, colorimetric, mouse EphA4 (AID 689). Type of experiment: functional.
In a further experiment the test system is Streptococcus. The experiment is described as follows: Group A Streptococcus viability loss, dose response, counter-screen for streptokinase expression inhibitor project, luminescence, BacTiterGlo (AID 1915).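 Further: potency for reduction of bacterial viability or growth.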 Type of experiment: functional, organism-based.
In experiment [22] the target is T3, Heat shock factor protein 1 (Mus musculus, UniProt P38532).
T3 sequence (P38532 whole entry): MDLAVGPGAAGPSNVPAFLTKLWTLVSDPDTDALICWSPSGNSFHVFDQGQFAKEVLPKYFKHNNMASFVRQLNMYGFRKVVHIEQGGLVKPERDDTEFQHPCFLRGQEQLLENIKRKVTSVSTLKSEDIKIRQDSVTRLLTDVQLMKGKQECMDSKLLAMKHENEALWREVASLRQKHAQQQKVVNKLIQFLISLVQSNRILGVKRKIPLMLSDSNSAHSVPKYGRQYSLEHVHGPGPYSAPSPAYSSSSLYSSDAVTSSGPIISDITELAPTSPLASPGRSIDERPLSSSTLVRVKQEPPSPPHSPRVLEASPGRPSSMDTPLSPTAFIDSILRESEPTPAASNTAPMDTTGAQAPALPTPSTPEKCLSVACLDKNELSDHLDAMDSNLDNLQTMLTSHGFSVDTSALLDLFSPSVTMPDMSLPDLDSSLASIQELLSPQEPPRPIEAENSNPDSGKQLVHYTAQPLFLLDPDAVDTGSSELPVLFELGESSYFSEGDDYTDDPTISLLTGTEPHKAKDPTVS
The experiment is described as follows: HSF1 potentiators in luciferase reporter cells, confirmation, cell-based, NIH3T3, luminescence, dose retest (AID 435004).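 Further: stress induced by proteasome inhibitor MG132 added 30 min after compound; luciferase reporter driven by HSF1 response element in NIH3T3 cells; actives raise luminescence as potentiators of the MG132 stress response.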 Type of experiment: functional.

Experiment [23] has as its target Heat shock protein HSP 90-alpha (Homo sapiens, UniProt P07900). The format is functional, organism-based.
Another experiment concerns Vero. The experiment is described as follows: Vero cell cytotoxicity, cytotoxicity control for flavivirus capping enzyme inhibitors (AID 588742). Type of experiment: functional. The settings on record: Chlorocebus sabaeus.
Experiment [24] in a line: Artemis endonuclease inhibitor potency, dose response, biochemical, fluorescence intensity (AID 720701).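 Further: Artemis endonuclease enzyme.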 The format is functional.
The target of experiment [25] is Muscarinic acetylcholine receptor M5 (Rattus norvegicus, UniProt P08911). The experiment is described as follows: Discovery of Novel Antagonists of Muscarinic Receptor M5: Counterscreen against RAT M5. Type of experiment: functional.
Experiment [26] concerns the target Muscarinic acetylcholine receptor M5 (Homo sapiens, UniProt P08912). The experiment is described as follows: M5 muscarinic receptor antagonist potency, dose response, cell-based, CHO-K1 hM5, Fluo-4 calcium flux, ACh EC80 (AID 743110). Type of experiment: functional. (Calcium assays in cells follow changes in intracellular calcium, usually with a dye or a luminescent sensor.)

Experiment [27] can be described thus: P. falciparum late gametocyte killing, dose response, luminescence (AID 1117278).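 Further: gametocytes exposed to compound for 24 hours.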 Type of experiment: functional, cell-based.
A short description of experiment [28]: Jurkat T cell cytotoxicity, dose response, cytotoxicity control for P. falciparum gametocyte viability project, luminescence (AID 1117277).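 Further: potency reflects loss of cellular ATP meaning fewer viable cells.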 Type of experiment: functional, cell-based.

Calls of active or inactive are those of the source.

Sequence of Muscarinic acetylcholine receptor M5 (Homo sapiens, UniProt P08912) (P08912 whole entry): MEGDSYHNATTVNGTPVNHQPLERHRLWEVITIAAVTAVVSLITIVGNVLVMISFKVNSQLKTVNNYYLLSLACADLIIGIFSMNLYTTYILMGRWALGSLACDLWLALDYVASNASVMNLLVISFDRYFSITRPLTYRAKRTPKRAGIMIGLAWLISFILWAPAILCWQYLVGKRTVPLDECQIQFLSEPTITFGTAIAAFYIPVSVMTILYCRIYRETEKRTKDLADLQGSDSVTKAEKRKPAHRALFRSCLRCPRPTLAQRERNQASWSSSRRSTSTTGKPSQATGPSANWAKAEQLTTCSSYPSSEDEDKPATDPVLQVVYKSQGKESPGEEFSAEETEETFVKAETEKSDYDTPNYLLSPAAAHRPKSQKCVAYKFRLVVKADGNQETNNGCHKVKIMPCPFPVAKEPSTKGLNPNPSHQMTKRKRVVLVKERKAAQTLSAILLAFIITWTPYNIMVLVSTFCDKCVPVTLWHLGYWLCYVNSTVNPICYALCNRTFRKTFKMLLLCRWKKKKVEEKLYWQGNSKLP
Sequence of G-protein coupled receptor 183 (P32249 whole entry): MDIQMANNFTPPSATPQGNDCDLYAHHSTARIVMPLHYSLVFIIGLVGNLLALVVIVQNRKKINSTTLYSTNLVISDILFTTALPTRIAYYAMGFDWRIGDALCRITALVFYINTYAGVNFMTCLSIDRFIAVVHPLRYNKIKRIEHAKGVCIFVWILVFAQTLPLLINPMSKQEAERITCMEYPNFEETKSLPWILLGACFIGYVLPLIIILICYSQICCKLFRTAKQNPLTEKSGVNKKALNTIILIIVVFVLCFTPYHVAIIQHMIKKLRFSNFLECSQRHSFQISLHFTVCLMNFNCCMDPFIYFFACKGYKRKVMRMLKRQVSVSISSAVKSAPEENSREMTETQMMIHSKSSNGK
Sequence of Ephrin type-A receptor 4 (Q03137 whole entry): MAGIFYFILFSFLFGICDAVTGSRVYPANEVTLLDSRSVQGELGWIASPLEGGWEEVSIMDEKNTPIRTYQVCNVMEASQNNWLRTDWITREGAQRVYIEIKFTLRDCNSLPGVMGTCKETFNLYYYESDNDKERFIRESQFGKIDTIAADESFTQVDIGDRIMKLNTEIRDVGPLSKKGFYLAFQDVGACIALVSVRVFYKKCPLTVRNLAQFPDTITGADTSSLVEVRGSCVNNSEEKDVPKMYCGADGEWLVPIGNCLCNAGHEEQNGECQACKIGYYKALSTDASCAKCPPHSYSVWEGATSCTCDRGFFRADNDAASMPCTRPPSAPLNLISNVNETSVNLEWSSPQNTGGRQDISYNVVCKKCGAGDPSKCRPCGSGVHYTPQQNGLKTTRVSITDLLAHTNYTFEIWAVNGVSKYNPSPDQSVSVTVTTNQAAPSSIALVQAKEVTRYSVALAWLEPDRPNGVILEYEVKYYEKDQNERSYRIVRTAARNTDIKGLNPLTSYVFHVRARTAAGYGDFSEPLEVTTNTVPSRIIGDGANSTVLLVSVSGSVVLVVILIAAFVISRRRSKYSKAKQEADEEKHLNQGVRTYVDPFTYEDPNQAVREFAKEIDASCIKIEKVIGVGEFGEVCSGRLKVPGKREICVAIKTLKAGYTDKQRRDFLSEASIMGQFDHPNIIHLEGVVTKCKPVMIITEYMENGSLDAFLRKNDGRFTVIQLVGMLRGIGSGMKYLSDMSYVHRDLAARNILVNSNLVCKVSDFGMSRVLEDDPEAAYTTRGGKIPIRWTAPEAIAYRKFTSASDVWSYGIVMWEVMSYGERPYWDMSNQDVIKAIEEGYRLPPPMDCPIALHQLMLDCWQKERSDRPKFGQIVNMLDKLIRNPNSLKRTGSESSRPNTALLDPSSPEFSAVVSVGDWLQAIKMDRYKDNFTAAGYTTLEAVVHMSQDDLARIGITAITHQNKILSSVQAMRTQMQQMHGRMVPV
Sequence of Paired box protein Pax-8 (Q06710 whole entry): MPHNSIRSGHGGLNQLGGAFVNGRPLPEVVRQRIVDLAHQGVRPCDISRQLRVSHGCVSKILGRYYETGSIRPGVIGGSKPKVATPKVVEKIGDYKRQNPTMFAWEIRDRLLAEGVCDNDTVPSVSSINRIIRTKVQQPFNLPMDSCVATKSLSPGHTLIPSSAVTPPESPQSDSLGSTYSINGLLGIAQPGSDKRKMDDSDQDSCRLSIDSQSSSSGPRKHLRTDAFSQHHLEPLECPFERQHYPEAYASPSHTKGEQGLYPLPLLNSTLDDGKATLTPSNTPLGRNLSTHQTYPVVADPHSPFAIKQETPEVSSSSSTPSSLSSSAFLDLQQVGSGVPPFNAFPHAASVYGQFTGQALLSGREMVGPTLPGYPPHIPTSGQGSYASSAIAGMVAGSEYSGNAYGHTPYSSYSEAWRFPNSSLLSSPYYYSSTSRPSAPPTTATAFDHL
Sequence of RNA-editing ligase 1, mitochondrial (P86926 whole entry): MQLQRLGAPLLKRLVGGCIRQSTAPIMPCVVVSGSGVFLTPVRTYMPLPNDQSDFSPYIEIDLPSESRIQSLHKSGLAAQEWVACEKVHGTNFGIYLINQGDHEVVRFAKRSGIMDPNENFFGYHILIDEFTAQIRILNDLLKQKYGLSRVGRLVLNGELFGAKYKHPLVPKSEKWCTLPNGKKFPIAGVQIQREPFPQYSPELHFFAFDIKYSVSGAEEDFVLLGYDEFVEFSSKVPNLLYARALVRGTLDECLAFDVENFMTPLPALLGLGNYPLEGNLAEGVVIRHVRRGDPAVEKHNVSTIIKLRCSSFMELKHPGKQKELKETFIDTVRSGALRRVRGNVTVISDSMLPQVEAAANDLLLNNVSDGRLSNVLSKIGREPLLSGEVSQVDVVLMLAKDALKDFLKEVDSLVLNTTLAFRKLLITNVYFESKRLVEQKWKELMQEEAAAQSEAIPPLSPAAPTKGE
Sequence of Muscarinic acetylcholine receptor M5 (Rattus norvegicus, UniProt P08911) (P08911 whole entry): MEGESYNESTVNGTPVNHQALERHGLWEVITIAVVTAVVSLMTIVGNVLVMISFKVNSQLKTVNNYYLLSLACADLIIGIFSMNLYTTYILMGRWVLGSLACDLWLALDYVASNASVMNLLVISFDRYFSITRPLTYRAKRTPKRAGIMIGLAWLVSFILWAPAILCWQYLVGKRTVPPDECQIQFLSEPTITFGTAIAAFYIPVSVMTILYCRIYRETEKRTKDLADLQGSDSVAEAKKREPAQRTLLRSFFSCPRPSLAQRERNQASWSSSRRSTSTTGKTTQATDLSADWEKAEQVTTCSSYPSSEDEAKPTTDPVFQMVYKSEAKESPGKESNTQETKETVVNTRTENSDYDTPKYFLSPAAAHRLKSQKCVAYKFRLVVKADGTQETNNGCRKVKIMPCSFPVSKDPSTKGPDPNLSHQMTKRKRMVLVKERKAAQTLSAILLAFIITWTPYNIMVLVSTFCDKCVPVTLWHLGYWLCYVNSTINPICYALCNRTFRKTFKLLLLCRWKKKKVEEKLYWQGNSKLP

`Cn1ncc(Br)c1C(=O)N1CCc2ccccc21`: at Transthyretin, the EC50 (commonly the concentration at which the effect is half-maximal) was > 167 µM (inactive).

As to `O=C(/C=C/c1ccc(F)cc1)N1CCN(S(=O)(=O)c2cccs2)CC1`, the half-inhibitory concentration (IC50) (commonly the point on the concentration scale where inhibition reaches its midpoint) in experiment [1] is 0.081 µM (active).

`c1ccc(-c2nc(NCCCN3CCOCC3)c3ccccc3n2)cc1`: the IC50 in experiment [2] was 22.5 µM (inactive); in experiment [3] it was 48.8 µM (inactive).

Take `Cc1cc(N)c2cc(NC(=O)Nc3ccc4nc(C)cc(N)c4c3)ccc2n1`: the IC50 was > 40 µM (inactive) in [4] and 34.2 µM (inactive) in experiment [5].

Regarding `Cc1noc(C)c1S(=O)(=O)N(C)C[C@@H]1OCCCC[C@@H](C)Oc2ccc(N(C)C)cc2C(=O)N([C@@H](C)CO)C[C@H]1C`, the concentration at half-maximal activity (AC50) (as a rule, the concentration giving half of the maximal activity seen) in experiment [6] is 10.6 µM (active).

On to `COc1cccc(C#Cc2ccc([C@H]3[C@H](CO)N4C(=O)CN(C(=O)Cc5ccccc5)C[C@@H]34)cc2)c1`, for which, in [7], the AC50 was 10.5 µM (active).

In the case of `COc1ccc(NC(=O)N2CCC3(CC2)CN(C(C)=O)[C@@H](CO)c2[nH]c4cc(OC)ccc4c23)cc1`, the AC50 in experiment [8] is 1.73 µM (active).

Turning to `COC(=O)C1=C(C)N(Cc2cccc(C(F)(F)F)c2)C(NCc2ccc3c(c2)OCO3)=NC1c1ccccc1C(F)(F)F` (centres undefined), in experiment [9], the IC50 was > 96.6 µM (inactive).

In experiment [10], `C[C@@H]1CN([C@@H](C)CO)S(=O)(=O)c2ccc(C#Cc3ccncc3)cc2O[C@H]1CN(C)C(=O)Nc1ccc2c(c1)OCO2` had an AbsAC35 of 39.06 µM. The half-maximal activity concentration (AC50) is 2.44 µM (active) on Paired box protein Pax-8; 22.7 µM (active) in experiment [11]; 0.0878 nM (active) in experiment [12]; 19.1 µM (active) in [13]; 31.1 µM (active) in experiment [14]; 0.179 µM (active) in [15]. Also, the AC50 in experiment [16] is 8.27 µM (active); in [17] it was 13 µM (active).

As to `O=C(/C=C/c1ccccc1)c1cc(Br)ccc(=O)c1O`, the EC50 is 11.6 µM (active) in [18]; 1.95 µM (active) in [19]; > 120 µM (not active) in experiment [20]; > 120 µM (not active) in experiment [21]; > 150 µM (not active) on Streptokinase A; 7.42 µM (active) with Streptococcus. Further, the EC50 in [22] was 15.9 µM (active). The concentration for half-maximal inhibition (IC50) at Ephrin type-A receptor 4 is 17.3 µM (active); in experiment [24], 19.1 µM (active). In addition, in experiment [23], the AC50 was 3.01 µM (active). In the experiment on Vero, the CC50 (usually the concentration at which the toxic effect on the cells reaches its halfway point) is 5.71 µM (active).

Regarding `CCN(C(=O)c1cc(COc2cccc(C(C)=O)c2)on1)C(C)c1ccccn1` (centres undefined), the IC50 in experiment [25] is 6.84 µM (active); in [26], 5.55 µM (active).

Turning to `c1ccc(CNC2=NCCS2)cc1`, the IC50 was > 109 µM (inactive) in experiment [27] and > 83.2 µM (inactive) in [28].
